According to ChEMBL document CHEMBL1250423, “Terpioside B, a difucosyl GSL from the marine sponge Terpios sp. is a potent inhibitor of NO release” (Bioorg Med Chem, 2010):
The source made the active and inactive calls. No cut-off for these calls is given here.

Biological target: T1, Nitric oxide synthase, inducible (Mus musculus) (UniProt P29477)
T1 sequence (whole entry): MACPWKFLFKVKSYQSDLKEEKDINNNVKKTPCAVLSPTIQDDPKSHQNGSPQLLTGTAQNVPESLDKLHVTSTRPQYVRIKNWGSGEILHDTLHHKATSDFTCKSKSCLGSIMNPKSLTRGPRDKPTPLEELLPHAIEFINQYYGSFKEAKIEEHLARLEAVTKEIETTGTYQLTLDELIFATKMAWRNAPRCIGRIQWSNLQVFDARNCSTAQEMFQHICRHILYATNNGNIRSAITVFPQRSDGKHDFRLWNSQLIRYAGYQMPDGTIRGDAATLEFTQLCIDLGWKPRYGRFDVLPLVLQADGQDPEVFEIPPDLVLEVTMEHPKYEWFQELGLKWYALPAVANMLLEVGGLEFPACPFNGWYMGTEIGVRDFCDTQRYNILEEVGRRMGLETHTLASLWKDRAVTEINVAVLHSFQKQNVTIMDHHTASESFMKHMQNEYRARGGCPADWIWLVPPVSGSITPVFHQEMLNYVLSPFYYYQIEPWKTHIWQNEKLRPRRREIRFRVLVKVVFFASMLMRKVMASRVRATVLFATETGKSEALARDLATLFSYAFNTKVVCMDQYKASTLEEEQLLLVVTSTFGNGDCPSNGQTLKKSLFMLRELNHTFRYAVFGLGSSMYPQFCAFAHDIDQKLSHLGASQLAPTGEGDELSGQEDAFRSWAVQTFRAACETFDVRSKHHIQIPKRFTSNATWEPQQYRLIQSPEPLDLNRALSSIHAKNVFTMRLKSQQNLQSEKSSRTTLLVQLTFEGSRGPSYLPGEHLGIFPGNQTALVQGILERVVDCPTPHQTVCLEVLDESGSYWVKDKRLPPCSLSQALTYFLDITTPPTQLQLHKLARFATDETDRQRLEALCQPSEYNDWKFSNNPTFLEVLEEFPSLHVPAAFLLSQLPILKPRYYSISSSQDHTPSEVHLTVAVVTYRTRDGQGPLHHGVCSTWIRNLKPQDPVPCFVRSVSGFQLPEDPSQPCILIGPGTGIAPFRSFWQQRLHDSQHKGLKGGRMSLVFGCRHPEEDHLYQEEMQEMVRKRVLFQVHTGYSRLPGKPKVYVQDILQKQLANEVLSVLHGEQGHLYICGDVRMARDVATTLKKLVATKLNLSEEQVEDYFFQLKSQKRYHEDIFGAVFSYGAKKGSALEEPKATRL
Test: Inhibition of iNOS in mouse J774.2 cells assessed as reduction of LPS-induced nitric oxide production at 1 to 10 uM after 24 hrs by Griess reaction
Assay type: cell-based

inhibition: Active
Structure (SMILES): CCCCCCCCCCCCCCCCCCCCCC[C@@H](O)C(=O)N[C@@H](CO[C@@H]1O[C@H](CO)[C@@H](O)[C@H](O[C@@H]2O[C@H]([C@H](C)O)[C@@H](O)[C@@H]2O)[C@H]1O)[C@H](O)[C@H](O)CCCCCCCCCCCC(C)CC (stereo partly specified)
